Reference: patent US20240150342A1, “ESTROGEN-RELATED RECEPTOR ALPHA MODULATORS” (LEAD PHARMA HOLDING B.V., priority 2019, published 2024)

Tests used:
[1] = biological target: T1, ERRα ligand binding domain (ERRα-LBD) (Homo sapiens, UniProt P11474); assay: ERRα AlphaScreen Assay; assay type: biochemical; conditions: disruption of binding of ERRα-LBD protein to biotin-PGC1α-3 co-activator peptide; read-out: mean pIC50 (converted)
T1 construct: made in house; host or cells: E. coli
T1 sequence (P11474 193-421 limits assumed): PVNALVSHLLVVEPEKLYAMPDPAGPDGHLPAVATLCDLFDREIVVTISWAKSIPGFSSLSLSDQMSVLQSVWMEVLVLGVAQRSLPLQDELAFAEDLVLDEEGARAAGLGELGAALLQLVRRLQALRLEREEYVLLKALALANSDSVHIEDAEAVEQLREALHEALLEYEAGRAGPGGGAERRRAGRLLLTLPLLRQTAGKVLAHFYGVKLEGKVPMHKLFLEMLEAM
Source text: This assay was based on the knowledge that nuclear receptors interact with cofactors in a ligand dependent matter. The sites of interaction have been mapped to LXXLL motifs that are present in the co-activator sequences. Short peptide sequences that contain the LXXLL motif mimic the behavior of full length co-activators.
The ERRα AlphaScreen Assay described here relies on the interaction of the co-activator peptide with purified bacterial- expressed ERRα ligand binding domain (ERRα-LBD); upon ligand binding, the ERRα protein can undergo a conformational change resulting in a loss of co-activator binding.
Compounds of the present invention were tested for their ability to disrupt binding of ERRα-LBD protein to co-activator peptide using AlphaScreen® Technology (Perkin Elmer). ERRα-LBD protein was expressed in E. coli as a 6×His Small Ubiquitin-like Modifier (SUMO) fusion. Bacterial expressed 6His-SUMO-ERRα-LBD protein was purified using affinity chromatography. All experiments were performed at room temperature in 384-well white non-binding plates (Greiner) using 50 mM Tris-HCl pH 7.5, 100 mM NaCl, 0.1% Pluronic F-127, 0.05% BSA and 5 mM TCEP as the buffer. Final DMSO concentration was 1% in the assay. Compounds were assayed in triplicate and: incubated with 0.81 nM ERRα-LBD protein and 10 μg/mL streptavidin donor beads and 10 μg/mL Ni-chelate acceptor beads for 1 hour at room temperature; followed by a 2-hour incubation with 15 nM biotin-PGC1α-3 peptide (QRRPCSELLKYLTTNDDPP) corresponding to amino acids 202 to 220.
The AlphaScreen signal was measured using an Envision Xcite plate reader (Perkin Elmer). Data was normalized, and curve fitting analysis was performed in GraphPad Prism 7 using a four-parameter dose-response fit.

full length ERRα = biological target: T2, full length ERRα (Homo sapiens, UniProt P11474); assay: Full Length ERRα Reporter Gene Assay; assay type: cell-based; conditions: SK-BR-3 cells, ERRα-RE luciferase reporter, overnight incubation; read-out: mean pIC50 (converted)
T2 construct: an over-expression construct coding full length ERRα; expressed in transfected cells; host or cells: SK-BR-3 cells, transient co-transfection of pLP2124 (pcDNA3.1/Hygro(+) background) and reporter pLP2175
T2 sequence (P11474 1-423): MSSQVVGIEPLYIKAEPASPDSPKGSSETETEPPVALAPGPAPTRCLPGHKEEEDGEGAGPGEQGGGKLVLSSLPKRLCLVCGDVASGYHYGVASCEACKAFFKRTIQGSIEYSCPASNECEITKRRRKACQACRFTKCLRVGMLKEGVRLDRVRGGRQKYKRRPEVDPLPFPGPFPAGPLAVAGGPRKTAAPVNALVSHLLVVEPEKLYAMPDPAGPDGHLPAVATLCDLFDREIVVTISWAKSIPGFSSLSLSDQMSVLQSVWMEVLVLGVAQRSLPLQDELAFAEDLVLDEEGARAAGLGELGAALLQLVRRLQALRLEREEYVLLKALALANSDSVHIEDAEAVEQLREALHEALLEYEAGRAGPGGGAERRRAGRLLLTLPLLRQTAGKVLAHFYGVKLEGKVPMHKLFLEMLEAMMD
Source text: A method was established to quantitatively screen the potency of compounds with inverse agonistic activity on the nuclear receptor ERRα of the human species. The assay allows intra-cellular screening of ERRα inverse agonists in SK-BR-3 cells using an over-expression construct coding full length ERRα and a reporter construct containing an ERRα Response Element (RE) and a luciferase gene for read out. The activity is expressed in logIC50 values and can be used to determine SAR of compound families or to de-select compounds.
In this assay, reporter cells are obtained by transient co-transfection of two constructs in SK-BR-3 cells using standard transfection techniques. The first construct contains a response element of the nuclear receptor ERRα (Plasmid pLP2175, Reporter construct ERRα-RE/luc2P, cloned variant of ERRα_v2_synthRE, Switchgear Genomics, Catalog Number S900089). This sequence drives the transcription of the luciferase reporter gene in response to binding of an ERRα protein encoded by the second construct (Plasmid pLP2124: full length ERRα expression construct using pcDNA3.1/Hygro(+) as background, Invitrogen Catalog Number V87020).
The day after transfection, cells were plated into 96 well plates, the test compound was added and the plates were incubated overnight. Subsequently, the firefly luciferase activity was quantified using luciferase detection reagent and luminescence readout.
Transfection is performed on pre-seeded SK-BR-3 cells in a T175 flask. One transfected T175 flask is sufficient for seeding 3 to 4 MW96 plates the next day, depending on the confluency of the transfected cells.
Two different media are used in this protocol for cell treatment: 1) Culture medium, i.e. McCoy's 5a with phenol red (BioWhittaker Supplier Number 12-688F), 10% FBS and 1× Penstrep.; and, 2) Assay medium, i.e. McCoy's 5a Medium phenol red free (HyClone Product Code SH30270.01) with 2% Charcoal Stripped FBS and 1× Penstrep. Compound dilutions are prepared in assay medium.
Cells are seeded at least 2 days in advance to allow the cells to adhere well to flask before transfection. Cells should be 50-80% confluent at the day of transfection.
SKBR3 cells were transfected with the transcriptional reporter construct pLP2175 and the ERRα expression construct pLP2124 (as described above).
68 μL of Lipofectamine LTX transfection reagent (Invitrogen Catalog Number 15338-100) was added dropwise to 8.9 ml Opti-MEM I Reduced Serum Medium (Gibco Catalog Number 51985-026) and incubated at room temperature for 5 to 20 minutes. 8.9 ml of this reagent mixture was added to 22 μg pLP2175+22 μg pLP2124 (ratio 1:1 and total volume 10 ml), and incubated at room temperature for 25 minutes.
10 minutes before adding the transfection mix to SKBR3 cells in a T175 flask, the culture medium was refreshed with 20 mL culture medium. Subsequently, the 10 mL DNA-Opti-MEM-Lipofectamine mixture was gently added to the cells, followed by overnight (16-24 hours) incubation at 37° C. and 5% CO2.
To harvest SKBR3 cells from a T175 flask, first the medium was removed. Subsequently, cells were washed with Phosphate Buffered Saline (PBS) (Lonza), after which the PBS was removed. To dissociate the cells, 2 ml of TrypLE Express (I nvitrogen) was added to the flask, followed by incubation at 37° C. for 5 minutes. The flask was tapped until cells were detached from the bottom. Cells were collected in 8 mL of culture medium (McCoy's 5a, 10% FBS, penstrep), to achieve a single cell suspension. After cell count, cells were spun down for 5 minutes at 300 g. Next cell pellets were re-suspended to 25000 cells/80 μl assay medium (McCoy's 5a phenol red free, 2% charcoal stripped FBS, penstrep).
For compound screening, the cells were harvested (as described above). 80 μL of cell suspension (25,000 cells) was plated per well into a white, flat bottom, tissue culture treated, 96 well screening plates (Greiner). […]

SMILES | IC50 [1] [nM] | IC50 (full length ERRα) [nM]
COc1cc(C2CC(=O)Nc3n[nH]cc32)ccc1Oc1ccc(O)c(C(C)(C)C)c1 (centres unmarked) [Example 29, 4-[4-(3-tert-butyl-4-hydroxyphenoxy)-3-methoxyphenyl]-2H,4H,5H,6H,7H-pyrazolo[3,4-b]pyridin-6-one] | ≤ 10 | ≤ 316
CCc1ccc(Oc2ccc(-c3cc(=O)[nH]c4n[nH]cc34)cc2OC)c(C(C)(C)C)c1 [Example 67, 4-[4-(2-tert-butyl-4-ethylphenoxy)-3-methoxyphenyl]-2H,6H,7H-pyrazolo[3,4-b]pyridin-6-one] | ≤ 10 | ≤ 316
COc1cc(C2CC(=O)Nc3n[nH]cc32)ccc1Oc1ccc(C#N)cc1C(C)(C)C (centres unmarked) [Example 39, 3-tert-butyl-4-(2-methoxy-4-{6-oxo-2H,4H,5H,6H,7H-pyrazolo[3,4-b]pyridin-4-yl}phenoxy)benzonitrile] | ≤ 10 | ≤ 316
CCc1ccc(Oc2ccc(C3CC(=O)Nc4n[nH]cc43)cc2OC)c(C(C)(C)C)c1 (centres unmarked) [Example 32, 4-[4-(2-tert-butyl-4-ethylphenoxy)-3-methoxyphenyl]-2H,4H,5H,6H,7H-pyrazolo[3,4-b]pyridin-6-one] | ≤ 10 | ≤ 316
COc1cc(C2CC(=O)Nc3n[nH]cc32)ccc1Oc1ccccc1C(C)(C)C (centres unmarked) [Example 10, 4-[4-(2-tert-butylphenoxy)-3-methoxyphenyl]-2H,4H,5H,6H,7H-pyrazolo[3,4-b]pyridin-6-one] | 10 to 100 | ≤ 316
COc1ccc(Oc2ccc(-c3cc(=O)[nH]c4n[nH]cc34)cc2OC)c(C(C)(C)C)c1 [Example 68, 4-[4-(2-tert-butyl-4-methoxyphenoxy)-3-methoxyphenyl]-2H,6H,7H-pyrazolo[3,4-b]pyridin-6-one] | ≤ 10 | ≤ 316
COc1cc(C2CC(=O)Nc3n[nH]cc32)ccc1Oc1cc(C(F)F)cc(C(F)(F)F)c1 (single isomer, unassigned; (-)) [Example 86, (−)-4-{4-[3-(difluoromethyl)-5-(trifluoromethyl)phenoxy]-3-methoxyphenyl}-2H, 4H,5H,6H,7H-pyrazolo[3,4-b]pyridin-6-one] | ≤ 10 | ≤ 316
COc1cc(Oc2ccc(C3CC(=O)Nc4n[nH]cc43)cc2OC)cc(C(F)(F)F)c1 (centres unmarked) [Example 38, 4-{3-methoxy-4-[3-methoxy-5-(trifluoromethyl)phenoxy]phenyl}-2H,4H,5H,6H,7H-pyrazolo[3,4-b]pyridin-6-one] | ≤ 10 | ≤ 316
COc1cc(C2CC(=O)Nc3n[nH]cc32)ccc1Oc1ccc(C(C)(C)C)cc1C(C)(C)C (centres unmarked) [Example 37, 4-[4-(2,4-di-tert-butylphenoxy)-3-methoxyphenyl]-2H,4H,5H,6H,7H-pyrazolo[3,4-b]pyridin-6-one] | ≤ 10 | ≤ 316
COc1cc(C2CC(=O)Nc3n[nH]cc32)ccc1Oc1cc(C)cc(C(F)(F)F)c1 (centres unmarked) [Example 63, 4-{3-methoxy-4-[3-methyl-5-(trifluoromethyl)phenoxy]phenyl}-2H,4H,5H,6H,7H-pyrazolo[3,4-b]pyridin-6-one] | ≤ 10 | ≤ 316
COC(=O)c1ccc(Oc2ccc(C3CC(=O)Nc4n[nH]cc43)cc2OC)c(C(C)(C)C)c1 (centres unmarked) [Example 35, methyl 3-tert-butyl-4-(2-methoxy-4-{6-oxo-2H,4H,5H,6H,7H-pyrazolo[3,4-b]pyridin-4-yl}phenoxy)benzoate] | ≤ 10 | ≤ 316
COc1cc(C2CC(=O)Nc3n[nH]cc32)ccc1Oc1ccc(C)cc1C(C)(C)C (centres unmarked) [Example 34, 4-[4-(2-tert-butyl-4-methylphenoxy)-3-methoxyphenyl]-2H,4H,5H,6H,7H-pyrazolo[3,4-b]pyridin-6-one] | ≤ 10 | ≤ 316
COC(=O)c1cc(Oc2ccc(C3CC(=O)Nc4n[nH]cc43)cc2OC)cc(C(F)(F)F)c1 (centres unmarked) [Example 41, methyl 3-(2-methoxy-4-{6-oxo-2H,4H,5H,6H,7H-pyrazolo[3,4-b]pyridin-4-yl}phenoxy)-5-(trifluoromethyl)benzoate] | 10 to 100 | ≤ 316
